Measurements as given in ChEMBL document CHEMBL4004864, “Synthetic analogs of rhamnolipids modulate structured biofilms formed by rhamnolipid-nonproducing mutant of Pseudomonas aeruginosa” (Bioorg Med Chem, 2017).
The source made the active and inactive calls. The calls are words filed in the database; no cut-off is given here.

What was measured:
Pseudomonas aeruginosa [1] = assay: Induction of biofilm formation in Pseudomonas aeruginosa PW6886 harboring rhlA-E08::ISphoA/hah mutant at 20 to 170 uM after 24 hrs under non-shaking condition by crystal-violet staining based assay; assay type: functional
Pseudomonas aeruginosa [2] = assay: Inhibition of biofilm formation in Pseudomonas aeruginosa PW6886 harboring rhlA-E08::ISphoA/hah mutant at 340 uM under non-shaking condition after 24 hrs by crystal-violet staining based assay; assay type: functional
Pseudomonas aeruginosa [3] = assay: (§1) Antibiofilm activity against Pseudomonas aeruginosa PW6886 harboring rhlA-E08::ISphoA/hah mutant preformed biofilms assessed as reduction in biofilm bacterial count at 20 to 40 uM preincubated for 24 hrs under non-shaking condition followed by second incubation for 1 hr after compound washout and subsequent compound addition and measured after 1 hr incubation under non-shaking condition by crystal-violet staining based assay; assay type: functional
Pseudomonas aeruginosa [4] = assay: Bactericidal activity against Pseudomonas aeruginosa PW6886 harboring rhlA-E08::ISphoA/hah mutant at 20 to 340 uM under shaking condition
Pseudomonas aeruginosa [5] = assay: Induction of structured biofilm formation in eGFP-fused Pseudomonas aeruginosa PW6886 harboring rhlA-E08::ISphoA/hah mutant at 20 uM after 24 hrs under shaking condition by confocal laser scanning microscopy; assay type: functional
Pseudomonas aeruginosa [6] = assay: Inhibition of biofilm formation in eGFP-fused Pseudomonas aeruginosa PW6886 harboring rhlA-E08::ISphoA/hah mutant at 340 uM after 24 hrs under shaking condition by confocal laser scanning microscopy; assay type: functional
Pseudomonas aeruginosa [7] = assay: Induction of biofilm formation in eGFP-fused Pseudomonas aeruginosa PW6886 harboring rhlA-E08::ISphoA/hah mutant at 20 uM after 48 hrs under shaking condition by confocal laser scanning microscopy; assay type: functional
Pseudomonas aeruginosa [8] = assay: Inhibition of biofilm formation in eGFP-fused Pseudomonas aeruginosa PW6886 harboring rhlA-E08::ISphoA/hah mutant at 340 uM after 48 hrs under shaking condition by confocal laser scanning microscopy; assay type: functional
Pseudomonas aeruginosa [9] = assay: Induction of biofilm formation in eGFP-fused Pseudomonas aeruginosa PW6886 harboring rhlA-E08::ISphoA/hah mutant at 20 to 40 uM by COMSTAT based quantification relative to control; assay type: functional
Pseudomonas aeruginosa [10] = assay: Inhibition of biofilm formation in eGFP-fused Pseudomonas aeruginosa PW6886 harboring rhlA-E08::ISphoA/hah mutant at 340 uM by COMSTAT based quantification relative to control; assay type: functional
Pseudomonas aeruginosa [11] = assay: Induction of biofilm formation in Pseudomonas aeruginosa PW6886 harboring rhlA-E08::ISphoA/hah mutant expressing EGFP assessed as reduction in exopolymers covering the bottom of well at 20 to 85 uM after 24 hrs under shaking condition by confocal laser scanning microscopy; assay type: functional
Pseudomonas aeruginosa [12] = assay: Induction of biofilm formation in Pseudomonas aeruginosa PW6886 harboring rhlA-E08::ISphoA/hah mutant expressing EGFP at 40 uM after 24 hrs under non-shaking condition by confocal laser scanning microscopy; assay type: functional
Pseudomonas aeruginosa [13] = assay: as §1, with “340” for “20 to 40”; assay type: functional
Pseudomonas aeruginosa [14] = assay: Induction of swarming motility of Pseudomonas aeruginosa PW6886 harboring rhlA-E08::ISphoA/hah mutant at 5 to 100 uM after 24 hrs; assay type: functional
Pseudomonas aeruginosa [15] = assay: Induction of tendril formation in Pseudomonas aeruginosa PW6886 harboring rhlA-E08::ISphoA/hah mutant at 5 to 100 uM after 24 hrs; assay type: functional
Pseudomonas aeruginosa [16] = assay: Induction of swarming motility of wild-type Pseudomonas aeruginosa PAO1 at 50 uM after 24 hrs; assay type: functional
Pseudomonas aeruginosa [17] = assay: Induction of tendril formation in Pseudomonas aeruginosa PAO1 at > 85 uM after 24 hrs; assay type: functional
Pseudomonas aeruginosa [18] = assay: Effect on biofilm formation in Pseudomonas aeruginosa PW6886 harboring rhlA-E08::ISphoA/hah mutant at 10 to 340 uM after 24 hrs under non-shaking condition by crystal-violet staining based assay; assay type: functional
Pseudomonas aeruginosa [19] = assay: as §1, with “340” for “40”; assay type: functional
Pseudomonas aeruginosa [20] = assay: Induction of swarming motility of wild-type Pseudomonas aeruginosa PAO1 at 5 to 100 uM after 24 hrs; assay type: functional
Pseudomonas aeruginosa [21] = assay: Induction of biofilm formation in Pseudomonas aeruginosa PW6886 harboring rhlA-E08::ISphoA/hah mutant expressing EGFP at 20 to 340 uM after 48 hrs under shaking condition by confocal laser scanning microscopy; assay type: functional
Pseudomonas aeruginosa [22] = assay: Inhibition of biofilm formation in Pseudomonas aeruginosa PW6886 harboring rhlA-E08::ISphoA/hah mutant expressing EGFP at 20 to 340 uM after 48 hrs under shaking condition by confocal laser scanning microscopy; assay type: functional

| SMILES | Activity (Pseudomonas aeruginosa [1]) | inhibition (Pseudomonas aeruginosa [2]) | Activity (Pseudomonas aeruginosa [3]) | Activity (Pseudomonas aeruginosa [4]) | Activity (Pseudomonas aeruginosa [5]) | inhibition (Pseudomonas aeruginosa [6]) | Activity (Pseudomonas aeruginosa [7]) | inhibition (Pseudomonas aeruginosa [8]) | Activity (Pseudomonas aeruginosa [9]) | inhibition at 340 µM (Pseudomonas aeruginosa [10]) [%] | Activity (Pseudomonas aeruginosa [12]) | Activity (Pseudomonas aeruginosa [13]) | Activity (Pseudomonas aeruginosa [14]) | Activity (Pseudomonas aeruginosa [18]) | Activity (Pseudomonas aeruginosa [19]) | Activity (Pseudomonas aeruginosa [20]) | Activity (Pseudomonas aeruginosa [21]) | inhibition (Pseudomonas aeruginosa [22]) | also measured |
| --- | --- | --- | --- | --- | --- | --- | --- | --- | --- | --- | --- | --- | --- | --- | --- | --- | --- | --- | --- |
| CC(C)CCCC(C)CCCC(C)CCO[C@@H]1O[C@H](CO)[C@@H](O[C@H]2O[C@H](CO)[C@@H](O)[C@H](O)[C@H]2O)[C@H](O)[C@H]1O (some centres not stated) | Active | Active | inactive | Non-Toxic | Active | Active | Active | Active | 10 - 60% | 80 | Active | Active | – | – | – | – | – | – | Activity (Pseudomonas aeruginosa [11]): Active |
| CCCCCCCCCCCCO[C@@H]1O[C@H](CO)[C@@H](O[C@H]2O[C@H](CO)[C@@H](O)[C@H](O)[C@H]2O)[C@H](O)[C@H]1O | Active | – | inactive | Non-Toxic | Active | Active | inactive | inactive | 10 - 60% | 80 | – | Active | Active | – | – | – | – | – | Activity (Pseudomonas aeruginosa [15]): Active; Activity (Pseudomonas aeruginosa [16]): Active; Activity (Pseudomonas aeruginosa [17]): Active |
| CC(C)CCCC(C)CCCC(C)CCO[C@@H]1O[C@H](CO)[C@@H](O[C@@H]2O[C@H](CO)[C@@H](O)[C@H](O)[C@H]2O)[C@H](O)[C@H]1O (some centres not stated) | Active | Active | inactive | – | Active | Active | Active | Active | 10 - 60% | 80 | Active | Active | – | – | – | – | – | – | – |
| O=C(c1ccccc1)c1ccc(COCCCCCCCCCCO[C@@H]2O[C@H](CO)[C@@H](O[C@H]3O[C@H](CO)[C@@H](O)[C@H](O)[C@H]3O)[C@H](O)[C@H]2O)cc1 | Active | – | inactive | Non-Toxic | Active | Active | Active | Active | 10 - 60% | 80 | Active | Active | – | – | – | – | – | – | – |
| CCCCCCOCCCCCO[C@@H]1O[C@H](CO)[C@@H](O[C@H]2O[C@H](CO)[C@@H](O)[C@H](O)[C@H]2O)[C@H](O)[C@H]1O | – | – | – | Non-Toxic | – | – | – | – | – | – | – | – | inactive | inactive | inactive | inactive | inactive | inactive | – |
| CCCOCCCCCCCCO[C@@H]1O[C@H](CO)[C@@H](O[C@H]2O[C@H](CO)[C@@H](O)[C@H](O)[C@H]2O)[C@H](O)[C@H]1O | – | – | – | – | – | – | – | – | – | – | – | – | inactive | inactive | inactive | inactive | inactive | inactive | – |
